Laboratory results as given in patent US20260191850A1, “USE OF 8-HYDROXYQUINOLINE DERIVATIVE” (Jiangsu Yahong Meditech Co., Ltd., priority 2022, published 2026).
pEC50: −log10 of the molar value. “And” between values parts separate entries of the source, which are not always exact repeats. Equal values may be shown once. Where a name gives a salt, the structure may show the parent alone. Read-outs that look alike come from different tables or passages of the source.

Experiments:
[1] = test system: Human Papillomavirus 11 (HPV11); experiment: Transient transfection HPV replication assay (E1/E2 plasmids, NanoLuc reporter), HPV11; type: cell-based; conditions: HPV11 strain HE611260.1, C-33 A cells; for pEC50: 48 hours
Experimental: The antiviral activity of 7-nitro-8-hydroxyquinoline derivatives against human papillomavirus (HPV) was tested and evaluated using transient transfection assays. This evaluation system included plasmids expressing viral helicase E1 and replication origin binding protein E2, plasmids containing NanoLuc gene of which the expression was driven by a TK promoter (Promega company), and replication origin sequences of human papillomavirus strains listed below. […] The positions of replication origin sequences of the three NanoLuc reporter plasmids were 7825-7993:1-99, 7662-7901:1-99, and 7740-7837:1-102 for HPV-11 (NCBI Accession No. HE611260.1), HPV-16 (NCBI Accession No. KP212151.1), and HPV-18 (NCBI Accession No. KC470230.1), respectively. The positions of E1 open reading frame (ORF) sequences corresponding to HPV-11, HPV-16 and HPV-18 were 832-2781, 864-2813 and 914-2887 in the same sequences, respectively. The positions of E2 open reading frame (ORF) sequences corresponding to HPV-11, HPV-16 and HPV-18 were 2723-3826, 2755-3852 and 2817-3908 in the same sequences, respectively. The cells used for transient transfection were C-33A cells (ATCC HTB-31), and the culture medium was DMEM supplemented with Earle's salt, L-glutamine and 2% fetal bovine serum. In the experiment, the NanoLuc expression plasmid (5 ng/well) was co-transfected with the E1 and E2 expression plasmids of the homologous virus by using Lipofectamine LTXL and Plus Reagent (Invitrogen product, Thermo Fisher Scientific company). […] Meanwhile, the transfected cells were also seeded into duplicated dishes containing the same dilution of test drugs to assess cytotoxicity. All transfected monolayer cells were incubated at 37° C. for 48 hours. The NanoLuc activity expressed by the reporter plasmids was detected with Nano-Glo reagent (Promega company), the cell viability in cytotoxicity plates was measured with CellTiter-Glo reagent (Promega company), and the luminescence intensity was quantified on a microplate reader. The meanings of EC50, CC50, and SI50 were the same as those well-known in the art (where SI50=CC50/EC50), and were not described here. […]

[2] = test system: C-33A cells (ATCC HTB-31); experiment: in vitro
Experimental: (§1) The antiviral activity of 7-nitro-8-hydroxyquinoline derivatives against human papillomavirus (HPV) was tested and evaluated using transient transfection assays. This evaluation system included plasmids expressing viral helicase E1 and replication origin binding protein E2, plasmids containing NanoLuc gene of which the expression was driven by a TK promoter (Promega company), and replication origin sequences of human papillomavirus strains listed below. […] The positions of replication origin sequences of the three NanoLuc reporter plasmids were 7825-7993:1-99, 7662-7901:1-99, and 7740-7837:1-102 for HPV-11 (NCBI Accession No. HE611260.1), HPV-16 (NCBI Accession No. KP212151.1), and HPV-18 (NCBI Accession No. KC470230.1), respectively. The positions of E1 open reading frame (ORF) sequences corresponding to HPV-11, HPV-16 and HPV-18 were 832-2781, 864-2813 and 914-2887 in the same sequences, respectively. The positions of E2 open reading frame (ORF) sequences corresponding to HPV-11, HPV-16 and HPV-18 were 2723-3826, 2755-3852 and 2817-3908 in the same sequences, respectively. The cells used for transient transfection were C-33A cells (ATCC HTB-31), and the culture medium was DMEM supplemented with Earle's salt, L-glutamine and 2% fetal bovine serum. In the experiment, the NanoLuc expression plasmid (5 ng/well) was co-transfected with the E1 and E2 expression plasmids of the homologous virus by using Lipofectamine LTXL and Plus Reagent (Invitrogen product, Thermo Fisher Scientific company). […] Meanwhile, the transfected cells were also seeded into duplicated dishes containing the same dilution of test drugs to assess cytotoxicity. All transfected monolayer cells were incubated at 37° C. for 48 hours. The NanoLuc activity expressed by the reporter plasmids was detected with Nano-Glo reagent (Promega company), the cell viability in cytotoxicity plates was measured with CellTiter-Glo reagent (Promega company), and the luminescence intensity was quantified on a microplate reader. The meanings of EC50, CC50, and SI50 were the same as those well-known in the art (where SI50=CC50/EC50), and were not described here.
(§2) J Med Chem. 2016; 59 (23): 10470-8. • Kachaeva, M. et al. In vitro activity of novel 1,3-oxazole derivatives against HPV. Ibnosina J Med Biomed Sci. 2017; 9 (4): 111-8.

[3] = in vitro; conditions: human
Experimental: as §1, §2

[4] = test system: Human Papillomavirus 16 (HPV16); experiment: Transient transfection HPV replication assay (E1/E2 plasmids, NanoLuc reporter), HPV16; type: cell-based
Experimental: as §1, §2

[5] = test system: Human Papillomavirus 18 (HPV18); experiment: Transient transfection HPV replication assay (E1/E2 plasmids, NanoLuc reporter), HPV18; type: cell-based; conditions: HPV18 strain KC470230.1, C-33 A cells; for pEC50: 48 hours
Experimental: as §1, §2

[6] = Human papillomavirus 16, C-33-A, 48 h
[7] = C-33 A cells transfected with HPV11 (HE611260.1) plasmids, 48 hours
[8] = C-33 A cells transfected with HPV16 (KP212151.1) plasmids, 48 hours
[9] = C-33 A cells transfected with HPV18 (KC470230.1) plasmids, 48 hours

## 4-methoxy-7-nitroquinolin-8-ol [Example 21]
[1]
  pEC50: < 5.22
[2]
  CC50: 22.2 µM

## CNc1c([N+](=O)[O-])c(O)c2ncccc2c1Cl [Compound 7, 5-chloro-6-(methylamino)-7-nitroquinolin-8-ol]
[1]; human papillomavirus 11
  pEC50: 5.28
[3]; CC50
  CC50 at 48 h: 19.1 µM

## O=[N+]([O-])c1cc(Cl)c2c(Cl)ccnc2c1O [Compound 29, 4,5-dichloro-7-nitroquinolin-8-ol]
[1]; human papillomavirus 11
  pEC50: 5.53
[3]
  CC50 at 48 h: 8.74 µM

## O=[N+]([O-])c1ccc2c(C3CCCCC3)ccnc2c1O [Compound 32, 4-cyclohexyl-7-nitroquinolin-8-ol]
[4]; [6]
  pEC50: 7.10
[5]; human papillomavirus 18
  pEC50: > 7.30
[1]; human papillomavirus 11
  pEC50: > 7.30

## O=[N+]([O-])c1cc(Cl)c2c(N3CCCCC3)ccnc2c1O [Compound 36, 5-chloro-7-nitro-4-piperidinylquinolin-8-ol]
[4]; [6]
  pEC50: 6.16
[5]; human papillomavirus 18
  pEC50: 6.57
[1]; human papillomavirus 11
  pEC50: > 7.30

## O=[N+]([O-])c1ccc2c(C(F)(F)F)ccnc2c1O [Compound 62, 7-nitro-4-trifluoromethylquinolin-8-ol]
[1]; human papillomavirus 11
  pEC50: < 5.92
[3]; CC50
  CC50 at 48 h: 5.5 µM

## O=[N+]([O-])c1cc(Cl)c2c(C(F)(F)F)ccnc2c1O [Compound 73, 5-chloro-7-nitro-4-(trifluoromethyl)-quinolin-8-ol hydrochloride]
[4]; [6]
  pEC50: 7.15
[1]; human papillomavirus 11
  pEC50: 7.22
[3]; CC50, C-33 A cells transfected with HPV11 (HE611260.1) plasmids, 48 hours
  CC50 at 48 h: 8.5 µM
[3]; CC50, C-33 A cells transfected with HPV16 (KP212151.1) plasmids, 48 hours
  CC50 at 48 h: 8.32 µM

## O=[N+]([O-])c1ccc2c(Cl)c(C3CC3)cnc2c1O [Compound 74, 4-chloro-3-cyclopropyl-7-nitroquinolin-8-ol]
[4]; [6]
  pEC50: 6.82
[5]; human papillomavirus 18
  pEC50: > 7.30
[1]; human papillomavirus 11
  pEC50: 6.24
[3]; CC50
  CC50 at 48 h: 34.4 µM

## O=[N+]([O-])c1c(Br)c(Cl)c2cccnc2c1O [Compound 114, 6-bromo-5-chloro-7-nitroquinolin-8-ol]
[1]; human papillomavirus 11
  pEC50: < 5.22
[3]
  CC50 at 48 h: 30 µM

## O=[N+]([O-])c1c(Cl)c(Cl)c2cccnc2c1O [Compound 115, 5,6-dichloro-7-nitroquinolin-8-ol]
[1]; human papillomavirus 11
  pEC50: < 4.52
[3]; CC50
  CC50 at 48 h: 112 µM

## O=[N+]([O-])c1c(Cl)c(F)c2cccnc2c1O [Compound 123, 6-chloro-5-fluoro-7-nitroquinolin-8-ol]
[1]; human papillomavirus 11
  pEC50: < 5.22
[3]; CC50
  CC50 at 48 h: 29.8 µM

## Cc1ccnc2c(O)c(C#N)cc(Cl)c12 [Compound 131, 4-methyl-5-chloro-7-cyano-8-hydroxyquinoline]
[4]; [6]
  pEC50: 6.26
[5]; human papillomavirus 18
  pEC50: 6.85
[1]; human papillomavirus 11
  pEC50: 6.28

## N#Cc1c(Cl)c(Cl)c2cccnc2c1O [Compound 133, 5,6-dichloro-7-cyano-8-hydroxyquinoline]
[1]; human papillomavirus 11
  pEC50: < 5.92
[3]; CC50
  CC50 at 48 h: 5.59 µM

## Cc1cc(C#N)c(O)c2ncccc12 [Compound A1]
[1]; human papillomavirus 11
  pEC50: < 5.22
[3]; CC50
  CC50 at 48 h: 20.2 µM

## O=[N+]([O-])c1ccc(O)c2ncccc12 [Compound A2, 5-nitro-8-hydroxyquinoline, reference compound]
[5]; human papillomavirus 18
  pEC50: 6.00
[1]; human papillomavirus 11
  pEC50: 5.98

## O=[N+]([O-])c1ccc2c(NC3COC3)ccnc2c1O [Example 19, 7-nitro-4-(3-oxetanylamino)quinolin-8-ol]
[1]
  pEC50: 6.28
[2]; [7]
  CC50: 4 µM

## CN(C)C(=O)N1CCN(c2ccnc3c(O)c([N+](=O)[O-])ccc23)CC1 [Example 25, 4-(8-hydroxy-7-nitroquinolin-4-yl)-N,N-dimethylpiperazine-1-carboxamide]
[4]; HPV16 strain KP212151.1, C-33 A cells, 48 hours, read-out: EC50
  pEC50: 7.05
[5]
  pEC50: 7.00
[1]
  pEC50: > 7.30
[2]; [7]
  CC50: 3.36 µM
[2]; [8]
  CC50: 7.53 µM
[2]; [9]
  CC50: 5.88 µM

## O=[N+]([O-])c1ccc2c(C3CCCCC3)ccnc2c1O [Example 32, 4-cyclohexyl-7-nitroquinolin-8-ol]
[1]
  pEC50: 5.40
[2]
  CC50: > 150 µM

## Nc1nc2c(ncn2CCOCP(=O)(O)O)c(=O)[nH]1 [Positive control drug, 9-[2-(phosphonylmethoxy)ethyl]guanine, reference compound]
[4]; HPV16 strain KP212151.1, C-33 A cells
  EC90: 2.3 µM
[5]
  EC90: > 150 µM
[1]
  EC90: 4.47 µM
  pEC50: 5.90 and 5.99
[2]; [7]
  CC50: > 150 µM
[2]; [8]
  CC50: > 150 µM
[2]; [9]
  CC50: > 150 µM
